Laboratory results taken from patent US7528159B2, “5-aryl pyridines as 11-beta inhibitors for the treatment of diabetes” (Hoffmann-La Roche Inc., priority 2004, dated 2009).
pIC50: −log10 of the molar value.

Target: T1, human 11beta-HSD1 (Homo sapiens, UniProt P28845)
T1 construct: made in house; host or cells: HEK293 cells (ATCC CRL-1573), transient transfection with lipofectamine; microsomal fraction used
Test: Microsome assay (cortisone to cortisol conversion, ELISA)
Format: biochemical
Conditions: microsomes from HEK293 cells transiently expressing human 11beta-HSD1; 60 min, 37° C.; read-out: h 11-beta-HSD 1 IC50
Experimental: The cDNA encoding the human 11beta-HSD1 protein was cloned into the expression vector pcDNA3 (Stratagene). This construct (for details see Alex Odermatt et al.; J Biol. Chem., 1999, Vol. 274, Issue 40, 28762-28770) was used to transiently express the protein in HEK293 cells (ATCC number: CRL-1573, described in Graham, F. L., Smiley, J., Russell, W. C., Nairn, R.; (1977)) using lipofectamine. 48 h after transfection cells were washed twice with ice-cold PBS (Phosphate buffered Saline). To 1 volume of cell suspension in PBS 2 volumes of ice-cold lysis buffer (50 mM Tris; pH7.5; 1 mM EDTA; 100 mM NaCl) were added. The cells were lysed by Potter-homogenization (20 strokes). The resulting homogenate was sonicated with a tip sonicator (10% output; 2×30 sec.) and cleared by a low speed centrifugation (10 min×9000 g; 4° C.). The microsomal fraction was collected by a high speed centrifugation (60 min×110'000 g). […]
Microsomes isolated from HEK293 cells transiently expressing human 11beta-HSD1 (for details see above) were incubated in assay buffer (100 mM NaCl; 1 mM EDTA; 1 mM EGTA; 1 mM MgCl; 250 mM Sucrose; 20 mM Tris pH 7.4; Cortisone 50-200 nM and NADPH 1 mM) together with different concentrations of test substances. […] The amount of Cortisol produced in this assay was determined using a commercially available, ELISA-based Cortisol-detection kit (Distributed by Assay Design, Inc.). […]

T1 sequence (P28845 whole entry): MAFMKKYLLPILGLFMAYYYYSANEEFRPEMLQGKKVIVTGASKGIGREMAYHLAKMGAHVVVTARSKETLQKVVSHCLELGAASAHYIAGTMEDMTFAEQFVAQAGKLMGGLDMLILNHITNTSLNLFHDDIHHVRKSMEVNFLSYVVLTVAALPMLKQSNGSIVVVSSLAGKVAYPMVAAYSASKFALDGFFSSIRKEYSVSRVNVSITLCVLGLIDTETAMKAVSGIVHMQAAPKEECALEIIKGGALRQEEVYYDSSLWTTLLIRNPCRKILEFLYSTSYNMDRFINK

Row | pIC50 | SMILES
1 | 8.52 | Cc1c(Cl)cccc1S(=O)(=O)Nc1ccc(-c2ccccc2Cl)cn1 [Example 2, 3-chloro-N-[5-(2-chloro-phenyl)-pyridin-2-yl]-2-methyl-benzenesulfonamide]
2 | 7.92 | Cc1cc(F)ccc1-c1ccc(NS(=O)(=O)c2cccc(Cl)c2)nc1C [Example 110, 3-Chloro-N-[5-(4-fluoro-2-methyl-phenyl)-6-methyl-pyridin-2-yl]-benzenesulfonamide]
